Assay results reported in patent publication US10894784B2, “Heteroarylbenzimidazole compounds” (BAYER PHARMA AKTIENGESELLSCHAFT, priority 2015, dated 2021).

Target: TBK1 (Homo sapiens (Human), UniProt Q9UHD2)
Test: TBK1 low ATP kinase assay (in vitro assay 1)
Assay type: biochemical
Details: in vitro assay 1, read-out: TBK1 low ATP kinase assay IC50

TBK1, sequence (Q9UHD2 whole entry): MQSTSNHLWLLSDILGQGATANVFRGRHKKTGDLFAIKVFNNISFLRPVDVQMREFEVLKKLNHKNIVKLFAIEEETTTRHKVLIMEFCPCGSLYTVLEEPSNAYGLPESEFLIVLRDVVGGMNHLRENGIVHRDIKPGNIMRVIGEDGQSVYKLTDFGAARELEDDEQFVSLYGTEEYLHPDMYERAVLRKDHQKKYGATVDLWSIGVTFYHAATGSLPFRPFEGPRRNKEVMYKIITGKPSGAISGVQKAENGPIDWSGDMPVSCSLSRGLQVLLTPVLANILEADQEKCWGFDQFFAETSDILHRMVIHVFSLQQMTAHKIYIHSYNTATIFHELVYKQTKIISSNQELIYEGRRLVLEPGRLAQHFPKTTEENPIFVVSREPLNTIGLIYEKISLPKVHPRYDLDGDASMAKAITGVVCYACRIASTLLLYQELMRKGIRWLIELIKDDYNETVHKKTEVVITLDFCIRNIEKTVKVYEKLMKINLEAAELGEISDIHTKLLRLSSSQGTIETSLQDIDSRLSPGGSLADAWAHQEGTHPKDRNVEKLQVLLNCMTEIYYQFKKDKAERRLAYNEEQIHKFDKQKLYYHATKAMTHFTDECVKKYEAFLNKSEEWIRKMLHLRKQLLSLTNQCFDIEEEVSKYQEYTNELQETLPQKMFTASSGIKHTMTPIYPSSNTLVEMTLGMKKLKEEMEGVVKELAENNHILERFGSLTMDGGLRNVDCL

Molecule | IC50
Cc1noc(-c2ccc3nc(Nc4cc(C(C)N5CCN(C(=O)C6CC6)CC5)ccn4)[nH]c3c2)n1 (single isomer, unassigned) [Example 16.06.03.A, cyclopropyl{4-[(1R or 1S)-1-(2-{[6-(3-methyl-1,2,4-oxadiazol-5-yl)-1H-benzimidazol-2-yl]amino}pyridin-4-yl)ethyl]piperazin-1-yl}methanone] | 13.8 nM
CCOc1nccc(-c2ccc3nc(Nc4cc(CN5CCN(C(=O)C6CCC6)CC5)ccn4)[nH]c3c2)n1 [Example 26.01.04, cyclobutyl{4-[(2-{[6-(2-ethoxypyrimidin-4-yl)-1H-benzimidazol-2-yl]amino}pyridin-4-yl)methyl]piperazin-1-yl}methanone] | 11.6 nM
CCN(CC)C(=O)N1CCN(Cc2ccnc(Nc3nc4ccc(-c5ncncc5OC)cc4[nH]3)c2)CC1 [Example 35.01.04, N,N-diethyl-4-[(2-{[6-(5-methoxypyrimidin-4-yl)-1H-benzimidazol-2-yl]amino}pyridin-4-yl)methyl]piperazine-1-carboxamide] | 26.9 nM
CC(c1ccnc(Nc2nc3ccc(-c4cnn(CC5(Cl)CC5)c4)cc3[nH]2)c1)N1CCN(C(=O)CC(F)(F)F)CC1 (single isomer, unassigned) [Example 69.02, 1-{4-[(1R or 1S)-1-{2-[(6-{1-[(1-chlorocyclopropyl)methyl]-1H-pyrazol-4-yl}-1H-benzimidazol-2-yl)amino]pyridin-4-yl}ethyl]piperazin-1-yl}-3,3,3-trifluoropropan-1-one] | 0.64 nM
Cc1nccc(-c2ccc3nc(Nc4cc(C(C)N5CCN(C(=O)C6CCC6)CC5)ccn4)[nH]c3c2)n1 (racemic) [Example 24.04.02, (rac)-cyclobutyl{4-[1-(2-{[6-(2-methylpyrimidin-4-yl)-1H-benzimidazol-2-yl]amino}pyridin-4-yl)ethyl]piperazin-1-yl}methanone] | 16.1 nM
Cc1cccc(-c2ccc3nc(Nc4cc(CN5CCN(C(=O)C6CC6)CC5)ccn4)[nH]c3c2)n1 [Example 12.02, cyclopropyl{4-[(2-{[6-(6-methylpyridin-2-yl)-1H-benzimidazol-2-yl]amino}pyridin-4-yl)methyl]piperazin-1-yl}methanone] | 924 nM
3,3,3-trifluoro-1-{4-[(1R or 1S)-1-{2-[(6-{1-[(1-methylcyclopropyl)methyl]-1H-pyrazol-4-yl}-1H-benzimidazol-2-yl)amino]pyridin-4-yl}ethyl]piperazin-1-yl}propan-1-one [Example 68.02] | 1.5 nM
CCOc1c(-c2ccncc2OC)ccc2nc(Nc3cc(CN4CCN(C(=O)C5CC5)CC4)ccn3)[nH]c12 [Example 51.03, cyclopropyl{4-[(2-{[7-ethoxy-6-(3-methoxypyridin-4-yl)-1H-benzimidazol-2-yl]amino}pyridin-4-yl)methyl]piperazin-1-yl}methanone] | 113 nM
O=C(C1CC1)N1CCN(Cc2ccnc(Nc3nc4ccc(-c5cnn(CC6CCC6)c5)cc4[nH]3)c2)CC1 [Example 59.02.02, (4-{[2-({6-[1-(cyclobutylmethyl)-1H-pyrazol-4-yl]-1H-benzimidazol-2-yl}amino)pyridin-4-yl]methyl}piperazin-1-yl)(cyclopropyl)methanone] | 6.71 nM
COc1cnccc1-c1ccc2nc(Nc3cc(CN4CCN(C(=O)CC(F)(F)F)CC4)ccn3)[nH]c2c1 [Example 04.02, 3,3,3-trifluoro-1-{4-[(2-{[6-(3-methoxypyridin-4-yl)-1H-benzimidazol-2-yl]amino}pyridin-4-yl)methyl]piperazin-1-yl}propan-1-one] | 16.4 nM
CCS(=O)(=O)N1CCN(Cc2ccnc(Nc3nc4ccc(-c5ncncc5OC)cc4[nH]3)c2)CC1 [Example 35.01.08, N-(4-{[4-(ethylsulfonyl)piperazin-1-yl]methyl}pyridin-2-yl)-6-(5-methoxypyrimidin-4-yl)-1H-benzimidazol-2-amine] | 24.3 nM
Cc1cc(-c2ccc3nc(Nc4cc(CN5CCN(C(=O)C6CC6)CC5)ccn4)[nH]c3c2)ncn1 [Example 30.01.04, cyclopropyl{4-[(2-{[6-(6-methylpyrimidin-4-yl)-1H-benzimidazol-2-yl]amino}pyridin-4-yl)methyl]piperazin-1-yl}methanone] | 12.3 nM
COc1cnc(OCC2CC2)nc1-c1ccc2nc(Nc3cc(CN4CCN(C(=O)C5CC5)CC4)ccn3)[nH]c2c1 [Example 64.01.02, cyclopropyl(4-{[2-({6-[2-(cyclopropylmethoxy)-5-methoxypyrimidin-4-yl]-1H-benzimidazol-2-yl}amino)pyridin-4-yl]methyl}piperazin-1-yl)methanone] | 33.7 nM

Next, values leading:

IC50 | Molecule
5.2 nM | COc1c(-c2ccc3nc(Nc4cc(C(C)N5CCN(C(=O)C6(C(F)(F)F)CC6)CC5)ccn4)[nH]c3c2)ncnc1N(C)C (single isomer, unassigned) [Example 107.02.04, (4-{(1R or 1S)-1-[2-({6-[6-(dimethylamino)-5-methoxypyrimidin-4-yl]-1H-benzimidazol-2-yl}amino)pyridin-4-yl]ethyl}piperazin-1-yl)[1-(trifluoromethyl)cyclopropyl]methanone]
44 nM | Cc1cc(-c2ccc3nc(Nc4cc(C(C)N5CCN(C(=O)CC(F)(F)F)CC5)ccn4)[nH]c3c2Cl)ncn1 (single isomer, unassigned) [Example 98.02, 1-{4-[(1R or 1S)-1-(2-{[7-chloro-6-(6-methylpyrimidin-4-yl)-1H-benzimidazol-2-yl]amino}pyridin-4-yl)ethyl]piperazin-1-yl}-3,3,3-trifluoropropan-1-one]
> 57000 nM | Cc1noc(-c2ccc3nc(Nc4cc(CN5CCN(c6ccc(F)c(F)c6)CC5)ccn4)[nH]c3c2)n1 [Example 101.21, N-(4-{[4-(3,4-difluorophenyl)piperazin-1-yl]methyl}pyridin-2-yl)-6-(3-methyl-1,2,4-oxadiazol-5-yl)-1H-benzimidazol-2-amine]
280 nM | Cc1noc(-c2ccc3nc(Nc4cc(CN5CCN(c6c(Cl)cncc6Cl)CC5)ccn4)[nH]c3c2)n1 [Example 101.23, N-(4-{[4-(3,5-dichloropyridin-4-yl)piperazin-1-yl]methyl}pyridin-2-yl)-6-(3-methyl-1,2,4-oxadiazol-5-yl)-1H-benzimidazol-2-amine]
49.4 nM | O=C(C1CC1)N1CCN(Cc2ccnc(Nc3nc4ccc(-c5ncnc(NC6CCC6)c5F)cc4[nH]3)c2)CC1 [Example 194.03, (4-{[2-({6-[6-(cyclobutylamino)-5-fluoropyrimidin-4-yl]-1H-benzimidazol-2-yl}amino)pyridin-4-yl]methyl}piperazin-1-yl)(cyclopropyl)methanone]
8.9 nM | CN(c1cc(-c2ccc3nc(Nc4cc(CN5CCN(C(=O)CC(F)(F)F)CC5)ccn4)[nH]c3c2)ncn1)C1CC1 [Example 157.02, 1-[4-({2-[(6-{6-[cyclopropyl(methyl)amino]pyrimidin-4-yl}-1H-benzimidazol-2-yl)amino]pyridin-4-yl}methyl)piperazin-1-yl]-3,3,3-trifluoropropan-1-one]
9.8 nM | CN(CC(F)(F)F)c1cc(-c2ccc3nc(Nc4cc(CN5CCN(C(=O)CC(F)(F)F)CC5)ccn4)[nH]c3c2)ncn1 [Example 146.02, 3,3,3-trifluoro-1-[4-({2-[(6-{6-[methyl(2,2,2-trifluoroethyl)amino]pyrimidin-4-yl}-1H-benzimidazol-2-yl)amino]pyridin-4-yl}methyl)piperazin-1-yl]propan-1-one]
450 nM | Cc1noc(-c2ccc3nc(Nc4cc(CN5CCN(c6cncc(Cl)n6)CC5)ccn4)[nH]c3c2)n1 [Example 101.29, N-(4-{[4-(6-chloropyrazin-2-yl)piperazin-1-yl]methyl}pyridin-2-yl)-6-(3-methyl-1,2,4-oxadiazol-5-yl)-1H-benzimidazol-2-amine]
791 nM | CN(C)c1ccnc(-c2ccc3nc(Nc4cc(CN5CCN(C(=O)OC(C)(C)C)CC5)ccn4)[nH]c3c2)n1 [Example 181.01, tert-butyl 4-{[2-({6-[4-(dimethylamino)pyrimidin-2-yl]-1H-benzimidazol-2-yl}amino)pyridin-4-yl]methyl}piperazine-1-carboxylate]
3.63 nM | CC(c1ccnc(Nc2nc3ccc(-c4cc(C(F)F)ncn4)cc3[nH]2)c1)N1CCN(C(=O)CC(F)(F)F)CC1 (single isomer, unassigned) [Example 174.02, 1-(4-{(1R or 1S)-1-[2-({6-[6-(difluoromethyl)pyrimidin-4-yl]-1H-benzimidazol-2-yl}amino)pyridin-4-yl]ethyl}piperazin-1-yl)-3,3,3-trifluoropropan-1-one]
28.6 nM | COc1nc(-c2ccc3nc(Nc4cc(CN5CCN(C(=O)CC(F)(F)F)CC5)ccn4)[nH]c3c2)cc(N(C)C)n1 [Example 189.02, 1-(4-{[2-({6-[6-(dimethylamino)-2-methoxypyrimidin-4-yl]-1H-benzimidazol-2-yl}amino)pyridin-4-yl]methyl}piperazin-1-yl)-3,3,3-trifluoropropan-1-one]
680 nM | Cc1noc(-c2ccc3nc(Nc4cc(CN5CCN(C=O)CC5)ccn4)[nH]c3c2)n1 [Example 101.01, 4-[(2-{[6-(3-methyl-1,2,4-oxadiazol-5-yl)-1H-benzimidazol-2-yl]amino}pyridin-4-yl)methyl]piperazine-1-carbaldehyde]
18 nM | CN(C)c1cc(-c2ccc3nc(Nc4cc(CN5CCN(C(=O)OC(C)(C)C)CC5)ccn4)[nH]c3c2)ncn1 [Example 143.01, tert-butyl 4-{[2-({6-[6-(dimethylamino)pyrimidin-4-yl]-1H-benzimidazol-2-yl}amino)pyridin-4-yl]methyl}piperazine-1-carboxylate]
136 nM | O=C(C1CC1)N1CCN(Cc2ccnc(Nc3nc4ccc(-c5ncnc6c5COC6)cc4[nH]3)c2)CC1 [Example 182.03, cyclopropyl{4-[(2-{[6-(5,7-dihydrofuro[3,4-d]pyrimidin-4-yl)-1H-benzimidazol-2-yl]amino}pyridin-4-yl)methyl]piperazin-1-yl}methanone]
1.5 nM | CC(c1ccnc(Nc2nc3ccc(-c4cnn(CC5CC5(F)F)c4)c(F)c3[nH]2)c1)N1CCN(C(=O)C2CC2)CC1 (single isomer, unassigned) [Example 86.03, cyclopropyl{4-[(1R or 1S)-1-(2-{[6-(1-{[(1RS)-2,2-difluorocyclopropyl]methyl}-1H-pyrazol-4-yl)-7-fluoro-1H-benzimidazol-2-yl]amino}pyridin-4-yl)ethyl]piperazin-1-yl}methanone]
